Reference: ChEMBL document CHEMBL1153290, “Development of multitargeted inhibitors of both the insulin-like growth factor receptor (IGF-IR) and members of the epidermal growth factor family of receptor tyrosine kinases” (Bioorg Med Chem Lett, 2009)
Activity calls are given as the source filed them. No cut-off for these calls is given here.

What was measured:
[1] = target: T1, Receptor tyrosine-protein kinase erbB-2 (Homo sapiens, UniProt P04626); experiment: Inhibition of ErbB2 by time resolved fluorescence assay
T1 sequence (P04626 whole entry): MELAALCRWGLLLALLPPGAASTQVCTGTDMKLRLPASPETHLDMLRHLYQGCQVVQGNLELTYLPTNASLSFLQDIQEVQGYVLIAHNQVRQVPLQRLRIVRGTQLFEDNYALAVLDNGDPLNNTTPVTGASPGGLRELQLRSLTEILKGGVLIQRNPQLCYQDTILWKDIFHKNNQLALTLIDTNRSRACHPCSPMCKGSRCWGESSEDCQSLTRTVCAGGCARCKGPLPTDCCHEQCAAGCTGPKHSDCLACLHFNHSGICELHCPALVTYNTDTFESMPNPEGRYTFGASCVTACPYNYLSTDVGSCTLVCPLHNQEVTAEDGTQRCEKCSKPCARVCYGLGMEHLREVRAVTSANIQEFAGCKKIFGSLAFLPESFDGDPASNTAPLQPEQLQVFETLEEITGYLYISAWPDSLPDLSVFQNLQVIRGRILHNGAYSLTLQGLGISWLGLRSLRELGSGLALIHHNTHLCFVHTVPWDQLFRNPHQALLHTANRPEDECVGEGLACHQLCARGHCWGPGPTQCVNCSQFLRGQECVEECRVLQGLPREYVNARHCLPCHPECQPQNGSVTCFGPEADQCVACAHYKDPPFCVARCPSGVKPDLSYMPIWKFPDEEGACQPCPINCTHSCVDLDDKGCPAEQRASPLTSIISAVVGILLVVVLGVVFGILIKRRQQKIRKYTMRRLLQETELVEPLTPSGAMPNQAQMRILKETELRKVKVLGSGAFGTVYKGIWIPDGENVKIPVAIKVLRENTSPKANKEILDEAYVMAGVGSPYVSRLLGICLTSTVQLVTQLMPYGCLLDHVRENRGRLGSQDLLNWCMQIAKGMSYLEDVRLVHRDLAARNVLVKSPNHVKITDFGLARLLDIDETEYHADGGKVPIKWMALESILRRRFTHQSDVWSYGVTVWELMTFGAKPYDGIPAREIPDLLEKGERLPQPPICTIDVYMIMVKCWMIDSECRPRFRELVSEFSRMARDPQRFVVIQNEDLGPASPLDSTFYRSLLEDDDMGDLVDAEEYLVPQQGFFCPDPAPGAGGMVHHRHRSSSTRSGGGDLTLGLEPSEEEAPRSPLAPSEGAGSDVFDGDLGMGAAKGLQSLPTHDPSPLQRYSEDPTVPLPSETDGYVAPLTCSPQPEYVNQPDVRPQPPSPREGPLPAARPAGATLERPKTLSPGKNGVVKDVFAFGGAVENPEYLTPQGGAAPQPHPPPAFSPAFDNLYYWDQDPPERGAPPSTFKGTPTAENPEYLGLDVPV

[2] = target: T2, Insulin-like growth factor 1 receptor (Homo sapiens, UniProt P08069); experiment: Inhibition of IGF1R by time resolved fluorescence assay
T2 sequence (P08069 31-736 limits assumed): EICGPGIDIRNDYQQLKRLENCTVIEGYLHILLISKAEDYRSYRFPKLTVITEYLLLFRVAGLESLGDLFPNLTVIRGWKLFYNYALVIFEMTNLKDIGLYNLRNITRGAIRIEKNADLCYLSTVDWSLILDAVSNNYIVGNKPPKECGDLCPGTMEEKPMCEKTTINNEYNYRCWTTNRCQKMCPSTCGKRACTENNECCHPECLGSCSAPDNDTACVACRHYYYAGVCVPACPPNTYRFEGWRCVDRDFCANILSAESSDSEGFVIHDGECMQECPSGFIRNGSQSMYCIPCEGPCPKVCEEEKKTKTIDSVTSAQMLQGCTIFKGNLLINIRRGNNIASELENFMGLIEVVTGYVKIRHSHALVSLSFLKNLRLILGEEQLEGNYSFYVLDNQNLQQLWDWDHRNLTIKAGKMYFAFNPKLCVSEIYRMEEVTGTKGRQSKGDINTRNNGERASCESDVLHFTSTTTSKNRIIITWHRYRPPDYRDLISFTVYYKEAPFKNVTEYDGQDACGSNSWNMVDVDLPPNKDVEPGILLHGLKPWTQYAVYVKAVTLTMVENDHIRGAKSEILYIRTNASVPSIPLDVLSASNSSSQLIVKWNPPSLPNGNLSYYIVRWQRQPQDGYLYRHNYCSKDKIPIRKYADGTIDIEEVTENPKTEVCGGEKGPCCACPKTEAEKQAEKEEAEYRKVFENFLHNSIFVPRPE
T2 sequence (P08069 741-1367 limits assumed): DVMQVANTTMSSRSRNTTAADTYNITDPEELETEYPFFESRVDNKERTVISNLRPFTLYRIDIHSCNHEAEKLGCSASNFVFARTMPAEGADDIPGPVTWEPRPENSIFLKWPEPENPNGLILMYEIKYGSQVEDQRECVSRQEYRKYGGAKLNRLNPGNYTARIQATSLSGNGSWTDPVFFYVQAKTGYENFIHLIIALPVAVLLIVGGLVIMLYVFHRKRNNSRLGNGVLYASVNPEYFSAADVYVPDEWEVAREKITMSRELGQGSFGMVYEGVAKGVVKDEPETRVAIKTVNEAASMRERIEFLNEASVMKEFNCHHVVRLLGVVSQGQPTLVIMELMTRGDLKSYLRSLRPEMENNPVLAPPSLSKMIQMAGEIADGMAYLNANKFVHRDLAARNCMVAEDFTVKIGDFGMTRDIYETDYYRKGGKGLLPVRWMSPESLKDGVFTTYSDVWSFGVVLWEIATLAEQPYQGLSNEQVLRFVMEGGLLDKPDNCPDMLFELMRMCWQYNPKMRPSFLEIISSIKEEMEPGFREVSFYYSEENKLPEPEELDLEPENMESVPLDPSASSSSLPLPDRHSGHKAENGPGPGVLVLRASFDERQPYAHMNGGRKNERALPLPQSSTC

[3] = target: Epidermal growth factor receptor (Homo sapiens, UniProt P00533, L858R)
Sequence of Epidermal growth factor receptor (Homo sapiens, UniProt P00533, L858R) (P00533 25-1210 L858R limits assumed): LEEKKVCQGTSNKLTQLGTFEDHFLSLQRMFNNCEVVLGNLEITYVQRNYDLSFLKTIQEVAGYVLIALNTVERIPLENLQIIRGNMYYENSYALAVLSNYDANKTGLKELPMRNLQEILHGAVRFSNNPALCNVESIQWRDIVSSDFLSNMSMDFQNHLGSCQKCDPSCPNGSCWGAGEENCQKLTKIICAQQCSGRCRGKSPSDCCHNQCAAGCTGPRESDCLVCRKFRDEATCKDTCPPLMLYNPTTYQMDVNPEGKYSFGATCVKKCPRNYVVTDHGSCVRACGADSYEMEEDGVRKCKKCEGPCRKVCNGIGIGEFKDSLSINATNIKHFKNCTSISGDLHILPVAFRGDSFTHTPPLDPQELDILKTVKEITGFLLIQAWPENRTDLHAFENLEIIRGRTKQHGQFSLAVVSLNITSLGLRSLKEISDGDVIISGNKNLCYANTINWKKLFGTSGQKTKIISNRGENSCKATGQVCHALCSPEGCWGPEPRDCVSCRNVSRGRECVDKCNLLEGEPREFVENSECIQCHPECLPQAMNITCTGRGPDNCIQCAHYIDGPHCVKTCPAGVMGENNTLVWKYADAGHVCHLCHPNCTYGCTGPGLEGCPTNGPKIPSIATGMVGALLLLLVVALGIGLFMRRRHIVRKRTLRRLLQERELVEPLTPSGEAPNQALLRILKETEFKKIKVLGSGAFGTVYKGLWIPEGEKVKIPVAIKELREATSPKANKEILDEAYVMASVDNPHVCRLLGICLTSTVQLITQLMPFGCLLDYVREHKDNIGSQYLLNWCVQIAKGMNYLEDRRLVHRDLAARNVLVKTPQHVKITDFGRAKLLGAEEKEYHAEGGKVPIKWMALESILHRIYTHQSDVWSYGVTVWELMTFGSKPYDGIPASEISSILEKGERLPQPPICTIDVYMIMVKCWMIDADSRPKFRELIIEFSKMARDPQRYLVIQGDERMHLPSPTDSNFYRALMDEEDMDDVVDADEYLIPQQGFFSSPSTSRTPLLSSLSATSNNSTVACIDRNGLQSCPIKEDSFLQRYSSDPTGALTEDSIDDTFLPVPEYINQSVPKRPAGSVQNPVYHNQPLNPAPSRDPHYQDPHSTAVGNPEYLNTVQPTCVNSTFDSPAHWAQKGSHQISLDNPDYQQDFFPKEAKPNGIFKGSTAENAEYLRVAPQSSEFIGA

[4] = target: T2, Insulin-like growth factor 1 receptor; experiment: Inhibition of IGF1R phosphorylation in IGF1 and EGF-stimulated human MiaPaCa2 cells pretreated for 6 hrs before IGF1 and EGF stimulation by ELISA; type: cell-based
[5] = target: Epidermal growth factor receptor (Homo sapiens, UniProt P00533); experiment: Inhibition of EGFR phosphorylation in IGF1 and EGF-stimulated human MiaPaCa2 cells pretreated for 6 hrs before IGF1 and EGF stimulation by ELISA; type: cell-based
Sequence of Epidermal growth factor receptor (Homo sapiens, UniProt P00533) (P00533 whole entry): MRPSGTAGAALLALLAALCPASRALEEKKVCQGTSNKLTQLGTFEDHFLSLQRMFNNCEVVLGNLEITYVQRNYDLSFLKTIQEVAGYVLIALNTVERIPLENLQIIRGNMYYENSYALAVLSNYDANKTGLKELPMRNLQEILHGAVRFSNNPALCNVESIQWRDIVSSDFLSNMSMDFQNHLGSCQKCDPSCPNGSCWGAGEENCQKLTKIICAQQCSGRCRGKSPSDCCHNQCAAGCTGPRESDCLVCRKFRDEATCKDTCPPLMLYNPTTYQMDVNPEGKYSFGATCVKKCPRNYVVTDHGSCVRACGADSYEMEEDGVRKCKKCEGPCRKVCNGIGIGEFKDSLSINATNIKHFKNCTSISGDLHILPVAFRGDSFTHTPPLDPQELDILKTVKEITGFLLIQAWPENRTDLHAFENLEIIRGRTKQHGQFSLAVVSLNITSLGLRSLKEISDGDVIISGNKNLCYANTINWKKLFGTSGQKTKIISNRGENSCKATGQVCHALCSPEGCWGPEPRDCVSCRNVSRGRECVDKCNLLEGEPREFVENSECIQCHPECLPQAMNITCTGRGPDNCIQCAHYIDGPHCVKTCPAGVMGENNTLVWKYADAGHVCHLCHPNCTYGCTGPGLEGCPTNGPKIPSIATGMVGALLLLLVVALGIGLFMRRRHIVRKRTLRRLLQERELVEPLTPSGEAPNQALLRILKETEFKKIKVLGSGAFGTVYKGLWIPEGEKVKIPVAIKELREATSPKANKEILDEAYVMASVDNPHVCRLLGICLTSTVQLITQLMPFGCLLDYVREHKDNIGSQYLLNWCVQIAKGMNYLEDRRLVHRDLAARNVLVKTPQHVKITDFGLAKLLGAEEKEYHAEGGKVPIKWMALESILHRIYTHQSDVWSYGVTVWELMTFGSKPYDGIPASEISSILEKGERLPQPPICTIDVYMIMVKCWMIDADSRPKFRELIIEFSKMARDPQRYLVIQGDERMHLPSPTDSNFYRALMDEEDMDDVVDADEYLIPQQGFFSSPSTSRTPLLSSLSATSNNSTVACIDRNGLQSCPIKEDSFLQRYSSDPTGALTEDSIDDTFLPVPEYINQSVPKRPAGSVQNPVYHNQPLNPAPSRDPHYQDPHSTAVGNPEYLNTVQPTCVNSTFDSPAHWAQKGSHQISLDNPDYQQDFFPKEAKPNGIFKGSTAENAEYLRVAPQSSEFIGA

[6] = target: T1, Receptor tyrosine-protein kinase erbB-2; experiment: Inhibition of ErbB2 phosphorylation in IGF1 and EGF-stimulated human N87 cells pretreated for 6 hrs before IGF1 and EGF stimulation by ELISA; type: cell-based, NCI-N87
Mus musculus [7] = experiment: Inhibition of IGF1R phosphorylation in IGF1 and EGF-stimulated mouse lung at 50 mg/kg, po pretreated 4 hrs before IGF1 and EGF stimulation; type: functional, organism-based; design: dose 50 mg/kg
[8] = Oral bioavailability in mouse; type: ADME, organism-based; settings: in vivo
[9] = Clearance in mouse; type: ADME, organism-based; settings: in vivo
Mus musculus [10] = experiment: Dose normalized AUC in po dosed mouse; type: ADME, organism-based; settings: in vivo
Mus musculus [11] = experiment: Dose normalized AUC in ip dosed mouse; type: ADME, organism-based; settings: in vivo
[12] = Protein binding in human plasma; type: ADME, cell-free; settings: read-out: PPB (converted)
Cytochrome P450 2D6 = Cytochrome P450 2D6 (Homo sapiens, UniProt P10635); experiment: Inhibition of human CYP2D6; type: ADME
Mus musculus [13] = experiment: Inhibition of EGFR phosphorylation in IGF1 and EGF-stimulated mouse liver at 50 mg/kg, ip pretreated 4 hrs before IGF1 and EGF stimulation; type: functional, organism-based; design: dose 50 mg/kg
[14] = Half life in mouse; type: ADME, organism-based; settings: in vivo
Mus musculus [15] = experiment: Inhibition of EGFR phosphorylation in IGF1 and EGF-stimulated mouse liver at 50 mg/kg, po pretreated 4 hrs before IGF1 and EGF stimulation; type: functional, organism-based; design: dose 50 mg/kg
[16] = Aqueous solubility at pH 7.2; type: physicochemical; settings: buffer
Cytochrome P450 2C9 = Cytochrome P450 2C9 (Homo sapiens, UniProt P11712); experiment: Inhibition of human CYP2C9; type: ADME
Mus musculus [17] = experiment: Inhibition of IGF1R phosphorylation in IGF1 and EGF-stimulated mouse lung at 50 mg/kg, ip pretreated 4 hrs before IGF1 and EGF stimulation; type: functional, organism-based; design: dose 50 mg/kg
[18] = Bioavailability in ip dosed mouse; type: ADME, organism-based; settings: in vivo
Cytochrome P450 3A4 = Cytochrome P450 3A4 (Homo sapiens, UniProt P08684); experiment: Inhibition of human CYP3A4; type: ADME
Mus musculus [19] = experiment: Dose normalized AUC in iv dosed mouse; type: ADME, organism-based; settings: in vivo

Structure (SMILES)	IC50 [1] [nM]	IC50 [2] [nM]	IC50 [3] [nM]	EC50 [4] [nM]	EC50 [5] [nM]	EC50 [6] [nM]	also measured
COc1ccccc1Cc1nc2ccc(-c3nn([C@H]4CC[C@H](N5CCOCC5)CC4)c4ncnc(N)c34)cc2[nH]1	53						
Nc1ncnc2c1c(-c1ccc3nc(Cc4cccs4)[nH]c3c1)nn2[C@H]1CC[C@H](N2CCOCC2)CC1	250	25	361				
COc1ccccc1Cc1nc2ccc(-c3nn([C@H]4CC[C@H](N5CCN(C(=O)N(C)C)CC5)CC4)c4ncnc(N)c34)cc2[nH]1	17	69	25	208	808	1580	
COc1ccccc1Cc1nc2ccc(-c3nn([C@H]4CC[C@H](N5CCN(CC6CC6)CC5)CC4)c4ncnc(N)c34)cc2[nH]1	13	40	3	190	91	147	
CCOC(=O)N1CCN([C@H]2CC[C@H](n3nc(-c4ccc5nc(Cc6ccccc6OC)[nH]c5c4)c4c(N)ncnc43)CC2)CC1	270	309	30	247	520	1600	
Nc1ncnc2c1c(-c1ccc3nc(Cc4ccccc4)[nH]c3c1)nn2[C@H]1CC[C@H](N2CCOCC2)CC1	186		270				
Nc1ncnc2c1c(-c1ccc3nc(Cc4ccccc4Cl)[nH]c3c1)nn2[C@H]1CC[C@H](N2CCOCC2)CC1	664	36	65				
COc1ccccc1Cc1nc2ccc(-c3nn([C@H]4CC[C@H](N5CCN(C(C)=O)CC5)CC4)c4ncnc(N)c34)cc2[nH]1	59	27	130	143	742	660	
COCCCN1CCN([C@H]2CC[C@H](n3nc(-c4ccc5nc(Cc6ccccc6OC)[nH]c5c4)c4c(N)ncnc43)CC2)CC1	54	81	58	115	85	94	inhibition (Mus musculus [7]): Active; bioavailability [8]: 12%; clearance [9]: 7.83 mL/min/kg; AUC (Mus musculus [10]): 0.42 µmol·h/L/mg/kg; AUC (Mus musculus [11]): 2.71 µmol·h/L/mg/kg; fraction unbound [12]: 0.033; IC50 (Cytochrome P450 2D6): 1600 nM; inhibition (Mus musculus [13]): Active; half-life [14]: 3.1 h; inhibition (Mus musculus [15]): Active; solubility [16]: > 30 µM; IC50 (Cytochrome P450 2C9): > 20000 nM; inhibition (Mus musculus [17]): Active; bioavailability [18]: 100%; IC50 (Cytochrome P450 3A4): > 20000 nM; AUC (Mus musculus [19]): 3.5 µmol·h/L/mg/kg
COc1ccccc1Cc1nc2ccc(-c3nn([C@H]4CC[C@H](N5CCNCC5)CC4)c4ncnc(N)c34)cc2[nH]1	44	26	30	711	335	210	
